Source: patent publication US20240057606A1, “MOLECULES HAVING CERTAIN PESTICIDAL UTILITIES, AND INTERMEDIATES, COMPOSITIONS, AND PROCESSES RELATED THERETO” (priority 2020, published 2024)

Columns and labels:
Format in all cases: in vivo
[1] = system: Cabbage Looper (Trichoplusia ni, "CL"); experiment: Bioassay on cabbage looper, 128-well diet tray assay; settings: 168 h, 50 μg/cm^2 of test compound on artificial diet, second instar larvae, 25° C., five to seven days, average of eight wells, read-out: CL % Control (or Mortality) rating
Experimental: (§1) Bioassays on Beet Armyworm (Spodoptera exigua, “BAW”) and Cabbage Looper (Trichoplusia ni, “CL”)
(§2) Certain molecules disclosed in this document were tested against BAW and CL using procedures described in the following examples. In the reporting of the results, the “BAW & CL Rating Table” was used (See Table Section).
Bioassays on CL were conducted using a 128-well diet tray assay. one to five second instar CL larvae were placed in each well (3 mL) of the diet tray that had been previously filled with 1 mL of artificial diet to which 50 μg/cm^2 of the test compound (dissolved in 50 μL of 90:10 acetone-water mixture) had been applied (to each of eight wells) and then allowed to dry. Trays were covered with a clear self-adhesive cover and held at 25° C., 14:10 light-dark cycle for five to seven days. Percent mortality was recorded for the larvae in each well; activity in the eight wells was then averaged. The results are indicated in the table entitled “Table ABC: Biological Results” (See Table Section).

[2] = system: Yellow Fever Mosquito (Aedes aegypti, "YFM"); experiment: Bioassay on yellow fever mosquito larvae, 96-well plate assay; settings: 4000 ppm DMSO master solution diluted with 90:10 water:acetone; about 1 day-old larvae; room temperature; scored after 3 days
Experimental: Bioassays On Yellow Fever Mosquito (Aedes aegypti, “YFM”)
Certain molecules disclosed in this document were tested against YFM using procedures described in the following paragraph. In the reporting of the results, the “YFM Rating Table” was used (See Table Section).
Master plates containing 400 μg of a molecule dissolved in 100 μL of dimethyl sulfoxide (DMSO) (equivalent to a 4000 ppm solution) are used. A master plate of assembled molecules contains 15 μL per well. To this plate, 135 μL of a 90:10 water:acetone mixture is added to each well. A robot (Biomek® NXP Laboratory Automation Workstation) is programmed to dispense 15 μL aspirations from the master plate into an empty 96-well shallow plate (“daughter” plate). There are 6 reps (“daughter” plates) created per master. The created daughter plates are then immediately infested with YFM larvae.
The day before plates are to be treated, mosquito eggs are placed in Millipore water containing liver powder to begin hatching (4 g. into 400 mL). After the daughter plates are created using the robot, they are infested with 220 μL of the liver powder/larval mosquito mixture (about 1 day-old larvae). After plates are infested with mosquito larvae, a non-evaporative lid is used to cover the plate to reduce drying. Plates are held at room temperature for 3 days prior to grading. After 3 days, each well is observed and scored based on mortality.

[3] = system: Beet Armyworm (Spodoptera exigua, "BAW"); experiment: Bioassay on beet armyworm, 128-well diet tray assay; settings: 168 h, 50 μg/cm^2 of test compound on artificial diet, second instar larvae, 25° C., five to seven days, average of eight wells, read-out: BAW % Control (or Mortality) rating
Experimental: as §1, §2
Bioassays on BAW were conducted using a 128-well diet tray assay. one to five second instar BAW larvae were placed in each well (3 mL) of the diet tray that had been previously filled with 1 mL of artificial diet to which 50 μg/cm^2 of the test compound (dissolved in 50 μL of 90:10 acetone-water mixture) had been applied (to each of eight wells) and then allowed to dry. Trays were covered with a clear self-adhesive cover and held at 25° C., 14:10 light-dark cycle for five to seven days. Percent mortality was recorded for the larvae in each well; activity in the eight wells was then averaged. The results are indicated in the table entitled “Table ABC: Biological Results” (See Table Section).

Compound	mortality at 50 µg/cm2 [1] [%]	YFM % Control (or Mortality) rating [2]	mortality at 50 µg/cm2 [3] [%]
O=C(/N=C1\SCC(=O)N1c1ccc2ccccc2c1)Nc1ccc(-c2ncn(-c3ccc(OC(F)(F)F)cc3)n2)cc1F [F13, (Z)-1-(2-Fluoro-4-(1-(4-(trifluoromethoxy)phenyl)-1H-1,2,4-triazol-3-yl)phenyl)-3-(3-(naphthalen-2-yl)-4-oxothiazolidin-2-ylidene)urea]	50 to 100	D (No activity noticed in this bioassay)	50 to 100
O=C(/N=C1\SCC(=O)N1c1cccc2c1COC2=O)Nc1ccc(-c2ncn(-c3ccc(OC(F)(F)F)cc3)n2)cc1F [F19, (Z)-1-(2-Fluoro-4-(1-(4-(trifluoromethoxy)phenyl)-1H-1,2,4-triazol-3-yl)phenyl)-3-(4-oxo-3-(1-oxo-1,3-dihydroisobenzofuran-4-yl)thiazolidin-2-ylidene)urea]	0	D (No activity noticed in this bioassay)	50 to 100
Cn1ccc2c(N3C(=O)CS/C3=N\C(=O)Nc3ccc(-c4ncn(-c5ccc(OC(F)(F)F)cc5)n4)cc3F)cccc21 [F15, (Z)-1-(2-Fluoro-4-(1-(4-(trifluoromethoxy)phenyl)-1H-1,2,4-triazol-3-yl)phenyl)-3-(3-(1-methyl-1H-indol-4-yl)-4-oxothiazolidin-2-ylidene)urea]	50 to 100	A (80-100)	50 to 100
Cc1cc(-c2ncn(-c3ccc(OC(F)(F)C(F)(F)F)cc3)n2)ccc1NC(=O)/N=C1\SCC(=O)N1c1ccc2ccccc2c1 [F29, (Z)-1-(2-Methyl-4-(1-(4-(perfluoroethoxy)phenyl)-1H-1,2,4-triazol-3-yl)phenyl)-3-(3-(naphthalen-2-yl)-4-oxothiazolidin-2-ylidene)urea]	50 to 100	D (No activity noticed in this bioassay)	50 to 100
O=C(/N=C1\SCC(=O)N1c1cccc2occc12)Nc1ccc(-c2ncn(-c3ccc(C(F)(F)C(F)(F)F)cc3)n2)cc1F [F20, (Z)-1-(3-(Benzofuran-4-yl)-4-oxothiazolidin-2-ylidene)-3-(2-fluoro-4-(1-(4-(perfluoroethyl)phenyl)-1H-1,2,4-triazol-3-yl)phenyl)urea]	50 to 100	D (No activity noticed in this bioassay)	50 to 100
CN1CCOc2c1cccc2N1C(=O)CS/C1=N\C(=O)Nc1ccc(-c2ncn(-c3ccc(OC(F)(F)F)cc3)n2)cc1F [F12, (Z)-1-(2-Fluoro-4-(1-(4-(trifluoromethoxy)phenyl)-1H-1,2,4-triazol-3-yl)phenyl)-3-(3-(4-methyl-3,4-dihydro-2H-benzo[b][1,4]oxazin-8-yl)-4-oxothiazolidin-2-ylidene)urea]	50 to 100	A (80-100)	50 to 100
O=C(/N=C1\SCC(=O)N1c1cccc2ncccc12)Nc1ccc(-c2ncn(-c3ccc(C(F)(F)F)cc3)n2)cc1F [F33, (Z)-1-(2-Fluoro-4-(1-(4-(trifluoromethyl)phenyl)-1H-1,2,4-triazol-3-yl)phenyl)-3-(4-oxo-3-(quinolin-5-yl)thiazolidin-2-ylidene)urea]	50 to 100	A (80-100)	50 to 100
O=C(/N=C1\SCC(=O)N1c1cccc2ccoc12)Nc1ccc(-c2ncn(-c3ccc(C(F)(F)C(F)(F)F)cc3)n2)cc1F [F21, (Z)-1-(3-(Benzofuran-7-yl)-4-oxothiazolidin-2-ylidene)-3-(2-fluoro-4-(1-(4-(perfluoroethyl)phenyl)-1H-1,2,4-triazol-3-yl)phenyl)urea]	50 to 100	A (80-100)	50 to 100
Cc1cc(-c2ncn(-c3ccc(OC(F)(F)C(F)(F)F)cc3)n2)ccc1NC(=O)/N=C1\SCC(=O)N1c1cccc2c1ccn2C [F27, (Z)-1-(3-(1-Methyl-1H-indol-4-yl)-4-oxothiazolidin-2-ylidene)-3-(2-methyl-4-(1-(4-(perfluoroethoxy)phenyl)-1H-1,2,4-triazol-3-yl)phenyl)urea]	50 to 100	A (80-100)	50 to 100
O=C(/N=C1\SCC(=O)N1c1cccc2c1CCOC2)Nc1ccc(-c2ncn(-c3ccc(OC(F)(F)F)cc3)n2)cc1F [F18, (Z)-1-(2-Fluoro-4-(1-(4-(trifluoromethoxy)phenyl)-1H-1,2,4-triazol-3-yl)phenyl)-3-(3-(isochroman-5-yl)-4-oxothiazolidin-2-ylidene)urea]	50 to 100	A (80-100)	50 to 100
Cc1cc(-c2ncn(-c3ccc(OC(F)(F)C(F)(F)F)cc3)n2)ccc1NC(=O)/N=C1\SCC(=O)N1c1cccc2ccoc12 [F23, (Z)-1-(3-(Benzofuran-7-yl)-4-oxothiazolidin-2-ylidene)-3-(2-methyl-4-(1-(4-(perfluoroethoxy)phenyl)-1H-1,2,4-triazol-3-yl)phenyl)urea]	50 to 100	A (80-100)	50 to 100
Cn1ccc2ccc(N3C(=O)CS/C3=N\C(=O)Nc3ccc(-c4ncn(-c5ccc(OC(F)(F)F)cc5)n4)cc3F)cc21 [F14, (Z)-1-(2-Fluoro-4-(1-(4-(trifluoromethoxy)phenyl)-1H-1,2,4-triazol-3-yl)phenyl)-3-(3-(1-methyl-1H-indol-6-yl)-4-oxothiazolidin-2-ylidene)urea]	50 to 100	A (80-100)	50 to 100
Cc1cc(-c2ncn(-c3ccc(OC(F)(F)C(F)(F)F)cc3)n2)ccc1NC(=O)/N=C1\SCC(=O)N1c1cccc2ncccc12 [F32, (Z)-1-(2-Methyl-4-(1-(4-(perfluoroethoxy)phenyl)-1H-1,2,4-triazol-3-yl)phenyl)-3-(4-oxo-3-(quinolin-5-yl)thiazolidin-2-ylidene)urea]	50 to 100	A (80-100)	50 to 100
